Key:
human NLRP1 inflammasome = assay: NLRP1 inflammasome activation, LPS plus MDP, THP-1 cells; format: cell-based
Description: (§1) The materials and methods employed in these experiments are now described. The molecules were evaluated in the THP-1, or PMA-differentiated THP-1 cells (50 nM PMA for 24h) as described in Example 3. To stimulate NLRP1 inflammasome, cells were either mock-treated or primed with compounds at the indicated concentrations for 30 min, followed by treatment with 100 ng/mL LPS (Sigma) and 50 µg/ml MDP (Sigma) for 6 h at 37°C. In the case of NLRC4 inflammasome induction, cells were pretreated with the compounds for 30 min and then cells were stimulated for 3 h with Salmonella Typhimurium (MOI 5). To induce AIM2 inflammasome, cells were pretreated in the same conditions as before and transfected with poly(dA:dT) (200 µg/ml; Sigma) overnight using Lipofectamine 2000 (Invitrogen). Both IL-1β secretion and the release of IL-18 were monitored as previously described in Example 3.

[1] = system: ASC specks in THP1-ASC-GFP cells; assay: ASC speck assay; format: cell-based, human; details: THP-1 ASC GFP, LPS 100 ng/mL + nigericin 10 µM; MM01 10 µM, VX-765 5 µM
Description: THP1-ASC-GFP cells were seeded at 1×10^6/ml the day prior to use in experiments on 35 mm glass-bottom culture dishes. The following day medium was replaced containing the indicated inhibitors or vehicle for 30 min. Cells were then primed with 100 ng/ml LPS for 3h and stimulated with 10 µM nigericin for 30 min. Samples were fixed in 4% paraformaldehyde (PFA) for 10 min at RT and washed several times. Coverslips were prepared in mounting medium plus DAPI and analyzed in a Leica SP8 confocal microscope.

NLRC4 inflammasome = NLRC4 inflammasome activation, Salmonella Typhimurium, THP-1 cells; format: cell-based, human; details: MM01 10 µM
Description: as §1

AIM2 inflammasome = AIM2 inflammasome activation, poly(dA:dT), PMA-differentiated THP-1 cells; format: cell-based, human; details: PMA-differentiated THP-1, poly(dA:dT) 200 µg/ml; MM01 10 µM
Description: as §1

NLRP3 inflammasome = assay: murine peritoneal macrophages cellular assay, LPS plus ATP; format: cell-based, Mice (BALB/c)
Description: Mice (BALB/c) were euthanized, and 5 ml of cold medium was injected (20G needle) into the peritoneal region. The aspirated fluid from peritoneum was centrifuged for 10 min at 400 × g and the cell pellet resuspended in DMEM/F12-10 (1 ml). 40000 cells/well were plated in 24-well plates. Cells were allowed to adhere to the plate by culturing them 2 h at 37°C and then, non-adherent cells were removed by gently washing three times with warm PBS. Macrophages were primed for 4 h with 100 ng/ml pure LPS (Alexis Biochemicals Corporation), in serum-free IMDM medium followed by 30 min with 5 mM ATP. Supernatants were harvested and clarified by centrifugation at 1500 rpm at RT and cytokine, and caspase-1 activation analysis was performed as previously described in Example 3.

C=CCN1C(=O)/C(=C2/C(=O)Nc3ccccc32)SC1=S [MM01]
IL-18 release (human NLRP1 inflammasome; THP-1, LPS 100 ng/ml + MDP 50 µg/ml): avoided
IL-1β release (human NLRP1 inflammasome; THP-1, LPS 100 ng/ml + MDP 50 µg/ml, MM01 1, 2.5 or 5 µM): avoided
procaspase-1 activation (human NLRP1 inflammasome; THP-1, LPS 100 ng/ml + MDP 50 µg/ml, pretreatment): avoided
pyroptotic cell death (human NLRP1 inflammasome; THP-1, LPS + MDP, LDH release): protected
ASC speck formation [1]: inhibited
cytokine maturation and release (NLRC4 inflammasome; THP-1, Salmonella infection (MOI 5)): impaired
pyroptosis (NLRC4 inflammasome; THP-1, Salmonella infection, LDH): decrease
IL-1β secretion (AIM2 inflammasome): significantly decreased
TNF-α release (NLRP3 inflammasome): not correlated with a significant reduction
release of LDH (NLRP3 inflammasome): decreased
IL-1β release (NLRP3 inflammasome; at 5 and 10 µM of MM01): significant inhibition
IL-6 release (NLRP3 inflammasome; at 5 and 10 µM of MM01): significant inhibition
